According to US8003096B2, “Means and methods for the recruitment and identification of stem cells” (Vlaams Interuniversitair Instituut voor Biotechnologie VZW, priority 2003, dated 2011):

How the values were obtained:
[1] = system: circulating WBCs; experiment: Circulating WBC counts (full blood counts) during mobilization; type: in vivo, mouse; conditions: WT mice
Procedure: (§1) To study the role of the plasminogen proteinase system with its plasminogen activators tPA and uPA, and active plasmin in stem/progenitor cell mobilization, mice lacking plasminogen (Plg^−/−), tPA (tPA^−/−), uPA (uPA^−/−) and both activators (tPA^−/−uPA^−/−) were used.^(17, 18) Age- and sex-matched mice were kept in IVC cages. Mobilization was induced either via a single sublethal injection i.v. of the myeloablative agent 5-fluorouracil (5-FU, 200-250 mg/kg), or via administration s.c. of recombinant human G-CSF (Filgrastim, Amgen, 200 μg/kg/d) for five consecutive days.^(12) Peripheral blood (PB) samples were obtained by retro-orbital bleeding under light anesthesia. Full blood counts were determined on the Abbott Cell Dyn 1300 hemocytometer. The number of mobilized hematopoietic progenitor cells (HPCs) in the circulation was determined via methylcellulose-based CFU-C assays (MethoCult, Stem Cell Technologies), per 10^5 peripheral blood mononuclear cells (PB MNCs).^(12) The number of mobilized hematopoietic stem cells (HSCs) in the circulation was quantified via splenic colony-forming assays (CFU-S), and evaluated for long-term engraftment via transplantation into lethally irradiated syngeneic wild-type recipients (9.5 Gy total body irradiation). […]

[2] = system: hematopoietic progenitor cells (HPCs); experiment: Circulating CFU-C assay on PB MNCs (mobilized HPCs); type: in vivo, mouse
Procedure: as §1
Wild-type mice and mice lacking Plg, both tPA and uPA, tPA, uPA, uPAR, PAI-1, α2AP, MMP-2 (kind gift from S. Itohara), MMP-3 (kind gift from J. Mudgett), MMP-9, MMP-12 (kind gift from S. Shapiro), and TIMP-1 (obtained by courtesy of P. Soloway) were used, and housed in barrier cages (individually ventilated) (Heymans et al. (1999), Nat. Med. 5:1135-42). […] Peripheral blood was repetitively sampled by retro-orbital puncture under light anesthesia, and full blood counts (EDTA buffered) were determined on a hemocytometer (Abbott Cell Dyn 1300). Peripheral blood smears were stained using Giemsa-May-Grunwald and at least 200 cells were analyzed. […]

[3] = system: hematopoietic stem cells (HSCs); experiment: Splenic colony-forming assay CFU-S (mobilized HSCs); type: in vivo, mouse; conditions: WT mice
Procedure: as §1

[4] = system: HSCs; experiment: Transplantation of mobilized PB MNCs into lethally irradiated WT recipients, survival; type: in vivo, mouse; conditions: donors WT mice treated with G-CSF and agent
Procedure: as §1

[5] = system: BM MNCs (HPCs); experiment: Chemotaxis transwell assay, migrated HPCs scored as CFU-Cs; type: cell-based, mouse; conditions: factor in bottom well, overnight incubation; GM-CSF 100 ng/ml
Procedure: (§2) Mononuclear cells (MNCs) were prepared via Lympholiter-M (Cedarlane) and density centrifugation. For CFU-C assays, bone marrow cells (5×10^4), or PB MNCs (1×10^5 or 5×10^5) were plated in 35 mm dishes (Stem Cell Technologies) using methylcellulose supplemented with growth factors (MethoCult, Stem Cell Technologies), and colonies were blindly scored after seven and thirteen days, respectively, using an inverted microscope (Luttun et al. (2002), Nat. Med. 8:831-40). […] After five weeks of culture, cells were trypsinized, counted, plated in MethoCult, and CFU-Cs were scored after nine days. […] For CFU-S assays, lethal total body irradiation (9.0 to 9.5 Gy), and transplantation of mobilized PB MNCs (1 to 1.5×10^5) were performed in syngeneic recipients, survival was monitored or splenic colonies were blindly scored after twelve days using a dissection microscope. For bone marrow proliferation index, bone marrow cells from treated mice were plated in 96-well plates, CellTiter96 (Promega) was added, and repetitive colorimetric readings were performed at OD 490 nm. […] After overnight incubation, the migrated non-adherent cells in the bottom wells were collected, counted, plated in MethoCult and CFU-Cs were scored after twelve days.

[6] = system: HSCs in the BM; experiment: HSCs in the BM, LTC-IC assay on AFT024 stromal feeder layers; type: in vivo, mouse; conditions: WT mice, after two days of treatment
Procedure: as §2

[7] = system: HPCs in the BM; experiment: CFU-Cs (HPCs) in the BM; type: in vivo, mouse; conditions: WT mice, after two days of treatment
Procedure: as §2

[8] = system: BM cells; experiment: BM proliferation index; type: in vivo, mouse; conditions: G-CSF-treated, N=8
Procedure: In contrast, HSC translocation and HPC expansion in the bone marrow was completely abolished in G-CSF-treated Plg^−/− mice (FIG. 1, Panels j and k). […] Thus, plasminogen is required for stem/progenitor cell expansion during mobilization.
Mononuclear cells (MNCs) were prepared via Lympholiter-M (Cedarlane) and density centrifugation. For CFU-C assays, bone marrow cells (5×10^4), or PB MNCs (1×10^5 or 5×10^5) were plated in 35 mm dishes (Stem Cell Technologies) using methylcellulose supplemented with growth factors (MethoCult, Stem Cell Technologies), and colonies were blindly scored after seven and thirteen days, respectively, using an inverted microscope (Luttun et al. (2002), Nat. Med. 8:831-40). […] After five weeks of culture, cells were trypsinized, counted, plated in MethoCult, and CFU-Cs were scored after nine days. […] For CFU-S assays, lethal total body irradiation (9.0 to 9.5 Gy), and transplantation of mobilized PB MNCs (1 to 1.5×10^5) were performed in syngeneic recipients, survival was monitored or splenic colonies were blindly scored after twelve days using a dissection microscope. For bone marrow proliferation index, bone marrow cells from treated mice were plated in 96-well plates, CellTiter96 (Promega) was added, and repetitive colorimetric readings were performed at OD 490 nm. […]

[9] = system: tPA; experiment: In vitro clot lysis with BM plasma samples; type: in vivo, mouse; conditions: N=4
Description: Compared to WT or tPA^−/− mice, uPA^−/− mice had increased mortality and delayed hematopoietic recovery (FIG. 2, Panels b and c). […] Moreover, uPA deficiency reduced the number of BM HSCs (Sca1^+cKit^+) and HPCs (Sca1^+) after 5-FU. Thus, uPA is the responsible plasminogen activator, generating plasmin during 5-FU-induced stem cell mobilization. After G-CSF treatment, the levels of active tPA, but not uPA, increased in the BM plasma, when measured by casein zymography. […] To assess whether the specific up-regulation of tPA in response to G-CSF was functionally relevant, we determined whether tPA^−/− mice were capable of mobilizing stem/progenitor cells in response to G-CSF. […]
BM extracellular fluid (BM plasma) from mice was obtained as described previously (Petit et al. (2002), Nat. Immunol. 3:687-94). […] Murine sKitL and SDF1α protein levels were quantified using commercial available ELISA (R&D Systems, Abingdon, UK). Murine plasminogen, and murine and human suPAR were quantified by home-made ELISA (Heymans et al. (1999), Nat. Med. 5:1135-42; Sier et al. (2004), Thromb. Haemost. 91:403-11). […] MMP-2, MMP-9, and MMP-12 activities were measured using gelatin-zymography, uPA and MMP-3 activities were measured using casein-zymography, as described previously (Heymans et al. (1999), Nat. Med. 5:1135-42). […]

[10] = system: sKitL; experiment: sKitL levels in BM plasma (ELISA); type: in vivo, mouse; conditions: WT mice, after G-CSF
Procedure: BM extracellular fluid (BM plasma) from mice was obtained as described previously (Petit et al. (2002), Nat. Immunol. 3:687-94). BM plasma from healthy volunteers was obtained by using the first 10 ml of collection via puncture in the iliac crest under local anesthesia, and immediate anti-coagulation with EDTA. Protein extraction on BM cells was performed as described (Heymans et al. (1999), Nat. Med. 5:1135-42). Murine sKitL and SDF1α protein levels were quantified using commercial available ELISA (R&D Systems, Abingdon, UK). Murine plasminogen, and murine and human suPAR were quantified by home-made ELISA (Heymans et al. (1999), Nat. Med. 5:1135-42; Sier et al. (2004), Thromb. Haemost. 91:403-11). Lyophilized pertussis toxin was obtained from List Laboratories. MMP-2, MMP-9, and MMP-12 activities were measured using gelatin-zymography, uPA and MMP-3 activities were measured using casein-zymography, as described previously (Heymans et al. (1999), Nat. Med. 5:1135-42). Samples from gene-deficient mice were used as negative controls. Plasmin activity of BM plasma or cells (pericellular activity) was measured using substrate colorimetry (S2403), as described previously (Heymans et al. (1999), Nat. Med. 5:1135-42). Fibrinolytic activity was measured using a modified fluorescent-based in vitro clot lysis assay (Heymans et al. (1999), Nat. Med. 5:1135-42). Western blotting was performed on non-reduced samples, which were neutralized with a cocktail of protease inhibitors (Complete Inhibitor, Roche). ECM components/fragments were detected with antibodies against mouse fibronectin and laminin (Sigma), and human D1D2D3 and D2D3 (Andolfo et al. (1999), Thromb. Haemost. 88:298-306), secondary HRP-labeled antibodies (DAKO), and ECL detection system (Amersham Pharmacia).

[11] = G-CSF in combination with agent for five days, compared to G-CSF alone
[12] = G-CSF plus drug for five days, compared to control vehicle

**Q.** What does the source list for tenecteplase?
**A.** enhanced mobilization of WBCs [1, 11]: 87%; enhanced mobilization of HPCs ([2]; WT mice, G-CSF in combination with agent for five days, compared to G-CSF alone): 65%; enhanced mobilization of HSCs [3, 11]: 155%; survival of lethally irradiated WT recipient mice after transplantation of mobilized cells [4]: significantly increased

**Q.** With pertussis toxin as the molecule, how does the “mobilization of HPCs” value ([2]; uPAR−/− mice, single i.v. bolus of 500 ng, after five days) read?
**A.** Its value is “efficiently mobilized”.

**Q.** Which “reduction of G-CSF-induced mobilization of WBCs” value [1, 12] does the source give for `NC[C@H]1CC[C@H](C(=O)O)CC1` [exacyl, tranexamic acid] here?
**A.** The value was 37%.

**Q.** And the “reduction of G-CSF-induced mobilization of HPCs” value ([2]; WT mice, G-CSF plus drug for five days, compared to control vehicle)?
**A.** The value was 55%.

**Q.** What about the “reduction of G-CSF-induced mobilization of HSCs” value [3, 12] of the same molecule?
**A.** The value was 49%.

**Q.** “GM-CSF: recombinant human GM-CSF (R&D systems), positive control in chemotaxis assay” was tested. Which HPCs in transwell [5] did it give?
**A.** The HPCs in transwell was 1363±323.

B1: G-CSF: recombinant human G-CSF (Filgrastim, Amgen) (protein, chains of the INN, looked up)
chain: MTPLGPASSLPQSFLLKCLEQVRKIQGDGAALQEKLCATYKLCHPEELVLLGHSLGIPWAPLSSCPSQALQLAGCLSQLHSGLFLYQGLLQALEGISPELGPTLDTLQLDVADFATTIWQQMEELGMAPALQPTQGAMPAFASAFQRRAGGVLVASHLQSFLEVSYRVLRHLAQP
**Q.** How did the “reduction of the number of HSCs in the bone marrow” value [6] turn out when B1 was run?
**A.** The value was 65%.

**Q.** What about the “increase of the number of HPCs in the bone marrow” value [7] of the same molecule?
**A.** Its value is 44%.

**Q.** And the “BM proliferation index (percent of proliferating BM cells in control mice)” value ([8]; Plg−/− mice)?
**A.** The value was 73±8%.

**Q.** What about the “BM proliferation index (percent of proliferating BM cells in control mice)” value ([8]; WT mice) of the same molecule?
**A.** Its value is 167±14%.

**Q.** And the “in vitro clot lysis, percentage of a positive standard” value ([9]; BM plasma of G-CSF-treated WT mice)?
**A.** The value was 79±2%.

**Q.** And the “in vitro clot lysis, percentage of a positive standard” value ([9]; BM plasma of G-CSF-treated tPA−/− mice)?
**A.** Its value is 58±2%.

**Q.** And the “sKitL levels in the BM plasma” value [10]?
**A.** Its value is “not increased”.
